Among the data in patent US5108997A, “Cephem compounds” (Fujisawa Pharmaceuticals Co., Ltd., priority 1986, dated 1992) are MIC values, retold here.

In this assay the test system is P. vulgaris 49. Description: In vitro antibacterial activity, two-fold agar-plate dilution method (MIC). Particulars: Proteus vulgaris, HI-agar, 10^6 viable cells per ml, 37° C. for 20 hours, read-out: MIC (minimal inhibitory concentration). Type of assay: cell-based. As for the experimental part:
Now in order to show the utility of the object compounds [I], the test data on MIC (minimal inhibitory concentration) of representative compounds [I] of this invention are shown in the following.
In vitro antibacterial activity was determined by the two-fold agar-plate dilution method as described below.
One loopful of an overnight culture of each test strain in Trypticase-soy broth (10^6 viable cells per ml) was streaked on heart infusion agar (HI-agar) containing graded concentrations of representative test compound, and the minimal inhibitory concentration (MIC) was expressed in terms of μg/ml after incubation at 37° C. for 20 hours.

≈ marks a conversion by molar mass, not a printed value.

With `Cn1c(N)cc[n+]1CC1=C(C(=O)[O-])N2C(=O)C(NC(=O)C(=NOCC(=O)O)c3nsc(N)n3)C2SC1` (stereo not drawn) [Compound A, 7β-[2-(5-Amino-1,2,4-thiadiazol-3-yl)-2-carboxymethoxyiminoacetamido]-3-(3-amino-2-methyl-1-pyrazolio)methyl-3-cephem-4-carboxylate (syn isomer)], the MIC came out at 0.2 µg/mL (≈ 0.372 µM).

As for `Cn1c(NC=O)cc[n+]1CC1=C(C(=O)[O-])N2C(=O)C(NC(=O)C(=NOCC(=O)O)c3nsc(N)n3)C2SC1` (stereo not drawn) [Compound B, 7β-[2-(5-Amino-1,2,4-thiadiazol-3-yl)-2-carboxymethoxyiminoacetamide]-3-(3-formamido-2-methyl-1-pyrazolio)methyl-3-cephem-4-carboxylate (syn isomer)], the MIC is 0.2 µg/mL (≈ 0.354 µM). With `Cn1c(N)cc[n+]1CC1=C(C(=O)[O-])N2C(=O)C(NC(=O)C(=NOC(C)(C)C(=O)O)c3nsc(N)n3)C2SC1` (stereo not drawn) [Compound C, 7β-[2-(5-Amino-1,2,4-thiadiazol-3-yl)-2-(1-carboxyl-1-methylethoxyimino)acetamido]-3-(3-amino-2-methyl-1-pyrazolio)methyl-3-cephem-4-carboxylate(syn isomer)], the MIC worked out at 0.1 µg/mL (≈ 0.177 µM).
